Test results taken from the supplement of paper PMC10307832.

Assays:
Assay in all cases: relative viability (nuclei count vs DMSO), 5 days (fraction); higher = more cells survive
A-427 = system: A-427
Procedure, shortened: (§1)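 Nuclei were stained with Hoechst during a one-step fixation (final 0.05% Triton X-100, 1% formaldehyde, 1 ug/ml Hoechst) carried out 5 days after dosing, then counted on 4× images. The cells, lung cancer lines in 1536-well plates, had been dosed by pin tool the day after seeding with one drug alone or a fixed anchor-drug dose plus five library-drug doses (not always all listed) in √10 steps. Relative viability is the nuclei count in treated wells divided by that in vehicle wells, and each value is the median of duplicate plates.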

NCI-H460 = system: NCI-H460
Procedure, shortened: as §1

NCI-H522 = system: NCI-H522
Procedure, shortened: as §1

NCI-H1395 = system: NCI-H1395
Procedure, shortened: as §1

COR-L 105 = system: COR-L 105
Procedure, shortened: as §1

NCI-H2009 = system: NCI-H2009
Procedure, shortened: as §1

NCI-H727 = system: NCI-H727
Procedure, shortened: as §1

NCI-H1792 = system: NCI-H1792
Procedure, shortened: as §1

SW 1573 = system: SW 1573
Procedure, shortened: as §1

NCI-H1355 = system: NCI-H1355
Procedure, shortened: as §1

NCI-H1975 = system: NCI-H1975
Procedure, shortened: as §1

SK-LU-1 = system: SK-LU-1
Procedure, shortened: as §1

HCC-827 = system: HCC-827
Procedure, shortened: as §1

HARA = system: HARA
Procedure, shortened: as §1

EMC-BAC-2 = system: EMC-BAC-2
Procedure, shortened: as §1

NCI-H1437 = system: NCI-H1437
Procedure, shortened: as §1

LCLC-103H = system: LCLC-103H
Procedure, shortened: as §1

HOP-62 = system: HOP-62
Procedure, shortened: as §1

CAL-12T = system: CAL-12T
Procedure, shortened: as §1

NCI-H1915 = system: NCI-H1915
Procedure, shortened: as §1

NCI-H23 = system: NCI-H23
Procedure, shortened: as §1

NCI-H1755 = system: NCI-H1755
Procedure, shortened: as §1

NCI-H2228 = system: NCI-H2228
Procedure, shortened: as §1

C[C@@H]1CN(CC(=O)Nc2ccc3c(c2)Cc2cccc(-c4cc(=O)cc(N5CCOCC5)o4)c2S3)C[C@H](C)O1 + CCNC(=O)c1noc(-c2cc(C(C)C)c(O)cc2O)c1-c1ccc(CN2CCOCC2)cc1 [Luminespib] (partner 0.01 µM)
relative viability (A-427; first compound 0.1265 µM): 0.884 | relative viability (A-427; first compound 0.4 µM): 1.02 | relative viability (A-427; first compound 4 µM): 1.02 | relative viability (NCI-H460; first compound 0.04 µM): 0.0317 | relative viability (NCI-H460; first compound 0.1265 µM): 0.0406 | relative viability (NCI-H460; first compound 0.4 µM): 0.0348 | relative viability (NCI-H460; first compound 4 µM): 0.0326 | relative viability (NCI-H522; first compound 0.1265 µM): 1.17 | relative viability (NCI-H522; first compound 0.4 µM): 1.06 | relative viability (NCI-H522; first compound 4 µM): 0.896 | relative viability (NCI-H1395; first compound 0.04 µM): 0.695 | relative viability (NCI-H1395; first compound 0.1265 µM): 0.627 | relative viability (NCI-H1395; first compound 0.4 µM): 0.69 | relative viability (NCI-H1395; first compound 4 µM): 0.741 | relative viability (COR-L 105; first compound 0.04 µM): 0.882 | relative viability (COR-L 105; first compound 0.1265 µM): 0.719 | relative viability (COR-L 105; first compound 0.4 µM): 0.887 | relative viability (COR-L 105; first compound 4 µM): 0.783 | relative viability (NCI-H2009; first compound 0.04 µM): 1.01 | relative viability (NCI-H2009; first compound 0.1265 µM): 0.995 | relative viability (NCI-H2009; first compound 0.4 µM): 0.983 | relative viability (NCI-H2009; first compound 4 µM): 0.804 | relative viability (NCI-H727; first compound 0.04 µM): 0.362 | relative viability (NCI-H727; first compound 0.1265 µM): 0.603 | relative viability (NCI-H727; first compound 0.4 µM): 0.37 | relative viability (NCI-H727; first compound 4 µM): 0.388 | relative viability (NCI-H1792; first compound 0.04 µM): 0.385 | relative viability (NCI-H1792; first compound 0.1265 µM): 0.493 | relative viability (NCI-H1792; first compound 0.4 µM): 0.399 | relative viability (NCI-H1792; first compound 4 µM): 0.333 | relative viability (SW 1573; first compound 0.04 µM): 0.215 | relative viability (SW 1573; first compound 0.1265 µM): 0.386 | relative viability (SW 1573; first compound 0.4 µM): 0.207 | relative viability (SW 1573; first compound 4 µM): 0.366 | relative viability (NCI-H1355; first compound 0.04 µM): 0.678 | relative viability (NCI-H1355; first compound 0.1265 µM): 0.693 | relative viability (NCI-H1355; first compound 0.4 µM): 0.704 | relative viability (NCI-H1355; first compound 4 µM): 0.805 | relative viability (NCI-H1975; first compound 0.04 µM): 0.289 | relative viability (NCI-H1975; first compound 0.1265 µM): 0.199 | relative viability (NCI-H1975; first compound 0.4 µM): 0.26 | relative viability (NCI-H1975; first compound 4 µM): 0.158 | relative viability (SK-LU-1; first compound 0.04 µM): 0.222 | relative viability (SK-LU-1; first compound 0.1265 µM): 0.203 | relative viability (SK-LU-1; first compound 0.4 µM): 0.23 | relative viability (SK-LU-1; first compound 4 µM): 0.167 | relative viability (HCC-827; first compound 0.04 µM): 0.547 | relative viability (HCC-827; first compound 0.1265 µM): 0.469 | relative viability (HCC-827; first compound 0.4 µM): 0.915 | relative viability (HCC-827; first compound 4 µM): 0.681 | relative viability (HARA; first compound 0.1265 µM): 0.675 | relative viability (HARA; first compound 0.4 µM): 0.471 | relative viability (HARA; first compound 4 µM): 0.89 | relative viability (EMC-BAC-2; first compound 0.04 µM): 1.28 | relative viability (EMC-BAC-2; first compound 0.1265 µM): 1.17 | relative viability (EMC-BAC-2; first compound 0.4 µM): 1.08 | relative viability (EMC-BAC-2; first compound 4 µM): 1.19 | relative viability (NCI-H1437; first compound 0.04 µM): 1.2 | relative viability (NCI-H1437; first compound 0.1265 µM): 1.16 | relative viability (NCI-H1437; first compound 0.4 µM): 1.22 | relative viability (NCI-H1437; first compound 4 µM): 0.891 | relative viability (LCLC-103H; first compound 0.04 µM): 0.949 | relative viability (LCLC-103H; first compound 0.1265 µM): 0.971 | relative viability (LCLC-103H; first compound 0.4 µM): 0.906 | relative viability (LCLC-103H; first compound 4 µM): 0.72 | relative viability (HOP-62; first compound 0.04 µM): 0.917 | relative viability (HOP-62; first compound 0.1265 µM): 0.898 | relative viability (HOP-62; first compound 0.4 µM): 0.92 | relative viability (HOP-62; first compound 4 µM): 0.907 | relative viability (CAL-12T; first compound 0.04 µM): 0.302 | relative viability (CAL-12T; first compound 0.1265 µM): 0.408 | relative viability (CAL-12T; first compound 0.4 µM): 0.613 | relative viability (CAL-12T; first compound 4 µM): 0.168 | relative viability (NCI-H1915; first compound 0.04 µM): 0.761 | relative viability (NCI-H1915; first compound 0.1265 µM): 0.686 | relative viability (NCI-H1915; first compound 0.4 µM): 0.756 | relative viability (NCI-H1915; first compound 4 µM): 0.68 | relative viability (NCI-H23; first compound 0.04 µM): 0.205 | relative viability (NCI-H23; first compound 0.1265 µM): 0.213 | relative viability (NCI-H23; first compound 0.4 µM): 0.227 | relative viability (NCI-H23; first compound 4 µM): 0.178 | relative viability (NCI-H1755; first compound 0.04 µM): 0.398 | relative viability (NCI-H1755; first compound 0.1265 µM): 0.361 | relative viability (NCI-H1755; first compound 0.4 µM): 0.45 | relative viability (NCI-H1755; first compound 4 µM): 0.258 | relative viability (NCI-H2228; first compound 0.04 µM): 0.15 | relative viability (NCI-H2228; first compound 0.1265 µM): 0.128 | relative viability (NCI-H2228; first compound 0.4 µM): 0.171 | relative viability (NCI-H2228; first compound 4 µM): 0.133
